Results reported in the supplement of paper PMC11061612.

Experiments:
Assay in all cases: combination Emax (second highest fraction inhibited in the dose matrix, 72 h); higher = more inhibition; extreme values may be limits of the assay
[1] = test system: CAL-54 (Kidney Carcinoma)
Method in brief: (§1)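 Bliss excess equals the observed combination effect minus the expected value EA + EB − EA·EB, where EA and EB are the effects of each agent alone. Combination Emax is the second-highest inhibition within the matrix. Inhibition was scaled from CellTiter-Glo 2.0 luminescence, with 0 set by vehicle wells and 1 by blank wells, after 72 hours of two-drug dosing of cells plated in 1536-well plates.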

[2] = test system: CAPAN-1 (Pancreatic Carcinoma)
Method in brief: as §1

[3] = test system: EN (Endometrial Carcinoma)
Method in brief: as §1

[4] = test system: HDLM-2 (Hodgkin's Lymphoma)
Method in brief: as §1

[5] = test system: HO-1-u-1 (Oral Cavity Carcinoma)
Method in brief: as §1

[6] = test system: K5 (Thyroid Gland Carcinoma)
Method in brief: as §1

[7] = test system: KARPAS-231 (B-Cell Non-Hodgkin's Lymphoma)
Method in brief: as §1

[8] = test system: KYSE-410 (Esophageal Squamous Cell Carcinoma)
Method in brief: as §1

[9] = test system: LB771-HNC (Head and Neck Carcinoma)
Method in brief: as §1

[10] = test system: MDA-MB-468 (Breast Carcinoma)
Method in brief: as §1

NB14 (Neuroblastoma) = test system: NB14 (Neuroblastoma)
Method in brief: as §1

NCI-H2461 (Mesothelioma) = test system: NCI-H2461 (Mesothelioma)
Method in brief: as §1

NCI-H2795 (Mesothelioma) = test system: NCI-H2795 (Mesothelioma)
Method in brief: as §1

[11] = test system: RPMI-6666 (Non-Cancerous)
Method in brief: as §1

SH-4 (Melanoma) = test system: SH-4 (Melanoma)
Method in brief: as §1

[12] = test system: SU-DHL-6 (B-Cell Non-Hodgkin's Lymphoma)
Method in brief: as §1

[13] = test system: SUP-T1 (T-Lymphoblastic Leukemia)
Method in brief: as §1

[14] = test system: SW1271 (Small Cell Lung Carcinoma)
Method in brief: as §1

[15] = test system: UMC-11 (Other Solid Carcinomas)
Method in brief: as §1

Row | SMILES | combination Emax [1] | combination Emax [2] | combination Emax [3] | combination Emax [4] | combination Emax [5] | combination Emax [6] | combination Emax [7] | combination Emax [8] | combination Emax [9] | combination Emax [10] | combination Emax (NB14 (Neuroblastoma)) | combination Emax (NCI-H2461 (Mesothelioma)) | combination Emax (NCI-H2795 (Mesothelioma)) | combination Emax [11] | combination Emax (SH-4 (Melanoma)) | combination Emax [12] | combination Emax [13] | combination Emax [14] | combination Emax [15]
1 | C=CCn1c(=O)c2cnc(Nc3ccc(N4CCN(C)CC4)cc3)nc2n1-c1cccc(C(C)(C)O)n1 [AZD1775] + C1CN(CCC1(C(=O)N[C@@H](CCO)C2=CC=C(C=C2)Cl)N)C3=NC=NC4=C3C=CN4 [Capivasertib] (first compound max 3 µM, partner max 3 µM) | 0.782 | 0.674 | 0.715 | 0.769 | 0.913 | 0.603 | 1 | 0.663 | 0.696 | 0.741 | 0.98 | 0.67 | 0.408 | 0.921 | 0.715 | 0.994 | 0.916 | 0.682 | 0.696
2 | NC1(C(=O)N[C@@H](CCO)c2ccc(Cl)cc2)CCN(c2ncnc3[nH]ccc23)CC1 [Capivasertib] + C[C@@H]1COCCN1C2=NC(=NC(=C2)C3(CC3)[S@](=N)(=O)C)C4=C5C=CNC5=NC=C4 [AZD6738] (first compound max 10 µM, 7x7, partner max 10 µM) | 0.813 | 0.364 | 0.71 | 0.518 | 0.887 | 0.687 | 0.691 | 0.397 | 0.674 | 0.726 | 0.964 | 0.797 | 0.737 | 0.775 | 0.492 | 1 | 0.866 | 0.512 | 0.67
3 | NC1(C(=O)N[C@@H](CCO)c2ccc(Cl)cc2)CCN(c2ncnc3[nH]ccc23)CC1 [Capivasertib] + CCN(CCO)CCCOc1ccc2c(Nc3cc(CC(=O)Nc4cccc(F)c4)[nH]n3)ncnc2c1 [AZD2811] (first compound max 10 µM, 7x7, partner max 1 µM) | 0.545 | 0.225 | 0.661 | 0.395 | 0.848 | 0.554 | 0.551 | 0.303 | 0.489 | 0.561 | 0.938 | 0.564 | 0.413 | 0.675 | 0.323 | 1 | 0.83 | 0.315 | 0.879
4 | NC1(C(=O)N[C@@H](CCO)c2ccc(Cl)cc2)CCN(c2ncnc3[nH]ccc23)CC1 [Capivasertib] + CC(C)n1c(=O)n(C)c2cnc3cc(F)c(-c4ccc(OCCCN5CCCCC5)nc4)cc3c21 [AZD1390] (first compound max 10 µM, 7x7, partner max 0.3 µM) | 0.466 | 0.044 | 0.574 | 0.298 | 0.746 | 0.405 | 0.215 | 0.327 | 0.395 | 0.518 | 0.381 | 0.6 | 0.394 | 0.715 | 0.359 | 1 | 0.718 | 0.371 | 0.201
5 | CN(C)CCCOc1ccc(-c2ccc3ncc4c(c3c2)n(C2CCOCC2)c(=O)n4C)cn1 [AZD0156] + O=C(c1cc(Cc2n[nH]c(=O)c3ccccc23)ccc1F)N1CCN(C(=O)C2CC2)CC1 [Olaparib] (first compound max 3 µM, partner max 3 µM) | 0.369 | 0.295 | 0.227 | 0.207 | 0.408 | 0.314 | 0.371 | 0.172 | 0.223 | 0.392 | 0.611 | 0.292 | 0.384 | 0.458 | 0.327 | 0.729 | 0.432 | 0.351 | 0.246
6 | CC(=O)c1c(C)c2cnc(Nc3ccc(N4CCNCC4)cn3)nc2n(C2CCCC2)c1=O [Palbociclib] + Cn1cnc2c(F)c(Nc3ccc(Br)cc3Cl)c(C(=O)NOCCO)cc21 [Selumetinib] (first compound max 10 µM, 7x7, partner max 10 µM) | 0.616 | 0.382 | 0.184 | 0.335 | 0.465 | 0.627 | 0.264 | 0.261 | 0.194 | 0.441 | 0.705 | 0.395 | 0.89 | 0.65 | 0.886 | 0.806 | 0.599 | 0.428 | 0.462
7 | CC(=O)c1c(C)c2cnc(Nc3ccc(N4CCNCC4)cn3)nc2n(C2CCCC2)c1=O [Palbociclib] + Cc1c2c(nn1C)CSCc1cc(n(C)n1)CSc1cc(c3ccccc3c1)OCCCc1c(C(=O)O)n(C)c3c-2c(Cl)ccc13 [AZD5991] (first compound max 10 µM, 7x7, partner max 1 µM) | 0.583 | 0.245 | 0.566 | 0.97 | 0.367 | 0.541 | 0.657 | 0.407 | 0.448 | 0.463 | 0.822 | 0.377 | 0.823 | 0.73 | 0.314 | 1 | 0.656 | 0.301 | 0.638
8 | NC1(C(=O)N[C@@H](CCO)c2ccc(Cl)cc2)CCN(c2ncnc3[nH]ccc23)CC1 [Capivasertib] + COc1nnc2ccc(N3CCC(c4ccc(OCCN5CCN(C)C(=O)[C@H]5C)cc4)CC3)nn12 [AZD5153] (first compound max 10 µM, 7x7, partner max 1 µM) | 0.775 | 0.358 | 0.525 | 0.389 | 0.91 | 0.929 | 0.229 | 0.56 | 0.875 | 0.666 | 0.884 | 0.526 | 0.398 | 0.815 | 0.775 | 1 | 0.789 | 0.459 | 0.768
9 | NC1(C(=O)N[C@@H](CCO)c2ccc(Cl)cc2)CCN(c2ncnc3[nH]ccc23)CC1 [Capivasertib] + Cn1cnc2c(F)c(Nc3ccc(Br)cc3Cl)c(C(=O)NOCCO)cc21 [Selumetinib] (first compound max 10 µM, 7x7, partner max 10 µM) | 0.611 | 0.476 | 0.646 | 0.205 | 0.878 | 0.864 | 0.0035 | 0.532 | 0.51 | 0.741 | 0.313 | 0.569 | 0.871 | 0.737 | 0.909 | 1 | 0.682 | 0.674 | 0.279
10 | C[C@@H](c1ccc2nccn2c1)n1nnc2ncc(-c3cnn(C)c3)nc21 [Savolitinib] + Cc1c2c(nn1C)CSCc1cc(n(C)n1)CSc1cc(c3ccccc3c1)OCCCc1c(C(=O)O)n(C)c3c-2c(Cl)ccc13 [AZD5991] (first compound max 1 µM, 7x7, partner max 1 µM) | 0.188 | 0.242 | 0.43 | 0.962 | 0.196 | 0.14 | 0.606 | 0.181 | 0.412 |  | 0.293 | 0.345 | 0.574 | 0.523 | 0.192 | 1 | 0.138 | 0.166 | 0.275
11 | Cn1cnc2c(F)c(Nc3ccc(Br)cc3Cl)c(C(=O)NOCCO)cc21 [Selumetinib] + C[C@@H]1COCCN1C2=NC(=NC(=C2)C3(CC3)[S@](=N)(=O)C)C4=C5C=CNC5=NC=C4 [AZD6738] (first compound max 10 µM, 7x7, partner max 10 µM) | 0.616 | 0.585 | 0.558 | 0.243 | 0.718 | 0.689 | 0.639 | 0.302 | 0.503 |  | 0.97 | 0.571 | 0.855 | 0.804 | 0.91 | 0.405 | 0.713 | 0.552 | 0.603
12 | CC(=O)c1c(C)c2cnc(Nc3ccc(N4CCNCC4)cn3)nc2n(C2CCCC2)c1=O [Palbociclib] + CC1(C)CCC(CN2CCN(c3ccc(C(=O)NS(=O)(=O)c4ccc(NCC5CCOCC5)c([N+](=O)[O-])c4)c(Oc4cnc5[nH]ccc5c4)c3)CC2)=C(c2ccc(Cl)cc2)C1 [Venetoclax] (first compound max 10 µM, 7x7, partner max 1 µM) | 0.527 | 0.21 | 0.146 | 0.731 | 0.271 | 0.452 | 0.889 | 0.136 | 0.149 | 0.261 | 0.734 | 0.308 | 0.351 | 0.797 | 0.271 | 0.976 | 0.618 | 0.214 | 0.507
13 | COc1nnc2ccc(N3CCC(c4ccc(OCCN5CCN(C)C(=O)[C@H]5C)cc4)CC3)nn12 [AZD5153] + Cc1c2c(nn1C)CSCc1cc(n(C)n1)CSc1cc(c3ccccc3c1)OCCCc1c(C(=O)O)n(C)c3c-2c(Cl)ccc13 [AZD5991] (first compound max 1 µM, 7x7, partner max 1 µM) | 0.729 | 0.417 | 0.645 | 0.987 | 0.561 | 0.678 | 0.941 | 0.348 | 0.915 |  | 0.934 | 0.498 | 0.864 | 0.804 | 0.89 | 1 | 0.726 | 0.512 | 0.994
